Laboratory results as given in PMC6167110, “NgcE^Sco Acts as a Lower-Affinity Binding Protein of an ABC Transporter for the Uptake of N,N′-Diacetylchitobiose in Streptomyces coelicolor A3(2)” (Microbes and Environments, 2018).

Key:
NgcE^Sco (SCO6005) [1] = biological target: T1, NgcE^Sco (SCO6005) (Streptomyces coelicolor, UniProt O50499); assay: isothermal titration calorimetry; type: binding; details: 20 mM Tris/HCl pH 8.0, 30°C; single-site fit
T1 construct: without putative signal peptide (29 N-terminal residues); from E. coli
T1 sequence (O50499 30-469): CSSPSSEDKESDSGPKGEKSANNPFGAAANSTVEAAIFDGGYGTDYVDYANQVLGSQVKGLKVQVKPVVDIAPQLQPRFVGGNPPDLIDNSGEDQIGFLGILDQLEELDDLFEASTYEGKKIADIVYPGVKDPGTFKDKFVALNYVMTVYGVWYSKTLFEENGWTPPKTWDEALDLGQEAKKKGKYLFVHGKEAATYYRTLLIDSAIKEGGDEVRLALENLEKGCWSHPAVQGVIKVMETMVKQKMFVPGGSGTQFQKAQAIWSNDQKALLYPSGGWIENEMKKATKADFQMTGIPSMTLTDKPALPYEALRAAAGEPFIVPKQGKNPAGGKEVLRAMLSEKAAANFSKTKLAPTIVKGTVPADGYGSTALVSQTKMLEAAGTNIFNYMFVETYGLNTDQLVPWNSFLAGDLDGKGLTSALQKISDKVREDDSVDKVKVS
From the text: isothermal titration calorimetry on NgcE^Sco (SCO6005)

NgcE^Sco (SCO6005) [2] = biological target: T1, NgcE^Sco (SCO6005); assay: intrinsic protein fluorescence titration; type: binding
DasR (DasR-6His) = biological target: T2, DasR (DasR-6His) (Streptomyces coelicolor, UniProt Q9K492); assay: EMSA, inhibition of DasR binding to dre^ngcE DNA; details: Cy5-labeled dre^ngcE DNA probe; allosteric
T2 construct: DasR-6His from pFT240, expressed in E. coli BL21(DE3), Ni-agarose purified

[3] = biological target: T3, NgcE of S. olivaceoviridis (Streptomyces olivaceoviridis, UniProt Q8RJV0); assay: intrinsic protein fluorescence titration; type: binding; details: fluorescence increase
T3 construct: N-terminally His-tagged, from E. coli carrying pQEH301
T3 sequence (Q8RJV0 47-489): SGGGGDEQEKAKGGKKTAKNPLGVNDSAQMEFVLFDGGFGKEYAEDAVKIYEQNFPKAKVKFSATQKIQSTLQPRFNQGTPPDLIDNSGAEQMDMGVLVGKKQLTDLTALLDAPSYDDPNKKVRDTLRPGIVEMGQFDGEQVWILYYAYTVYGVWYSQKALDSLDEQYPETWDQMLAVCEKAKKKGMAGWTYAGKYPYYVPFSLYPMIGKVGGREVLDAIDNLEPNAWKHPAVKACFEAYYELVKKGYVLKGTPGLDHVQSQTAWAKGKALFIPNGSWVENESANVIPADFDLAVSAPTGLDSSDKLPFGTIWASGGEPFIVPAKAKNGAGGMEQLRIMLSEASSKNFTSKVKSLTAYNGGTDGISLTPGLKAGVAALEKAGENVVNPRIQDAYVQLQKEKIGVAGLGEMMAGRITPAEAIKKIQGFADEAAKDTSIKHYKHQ

DasR-6His = biological target: T4, DasR-6His (Streptomyces coelicolor A3(2), UniProt Q9K492 1-254); assay: EMSA; EMSA: Cy5 probe ~0.1 mM and DasR-6His ~1 mM (so in the source); probably uM) in 50 uL, 1% agarose gel; buffer, salt, pH and temperature not given; details: protein: recombinant; tags: C-terminal 6xHis; chain copies: 2; label: Cy5 on the printed strand; blunt
T4 sequence: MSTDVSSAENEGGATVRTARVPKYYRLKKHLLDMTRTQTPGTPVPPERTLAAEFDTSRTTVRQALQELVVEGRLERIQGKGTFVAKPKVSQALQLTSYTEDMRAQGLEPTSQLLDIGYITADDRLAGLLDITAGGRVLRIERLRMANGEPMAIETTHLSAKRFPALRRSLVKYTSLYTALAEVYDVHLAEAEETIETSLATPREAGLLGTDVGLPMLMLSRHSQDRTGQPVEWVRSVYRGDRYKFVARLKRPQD

`CC(=O)N[C@H]1[C@H](O[C@H]2[C@H](O)[C@@H](NC(C)=O)C(O)O[C@@H]2CO)O[C@H](CO)[C@@H](O)[C@@H]1O` (stereo partly shown) [(GlcNAc)2] was tested, and the Kd (NgcE^Sco (SCO6005) [1]) was 1530 nM.

Work on `CC(=O)N[C@H]1C(O)O[C@H](CO)[C@H](O)[C@@H]1O` (stereo partly shown) [GalNAc] yielded a Kd (NgcE^Sco (SCO6005) [2]) of 12000 nM.

In the case of `N[C@H]1C(O)O[C@H](COP(=O)(O)O)[C@@H](O)[C@@H]1O` (stereo partly shown) [GlcN-6P], the “EMSA, inhibition of DasR binding to dre^ngcE DNA” value (DasR (DasR-6His)) is reported as “binding of DasR to the dre^ngcE-containing probe was inhibited by GlcNAc-6P and GlcN-6P”.

In the case of `CC(=O)N[C@H]1C(O)O[C@H](COP(=O)(O)O)[C@@H](O)[C@@H]1O` (stereo partly shown) [GlcNAc-6P], the “EMSA, inhibition of DasR binding to dre^ngcE DNA” value (DasR (DasR-6His)) is reported as “binding of DasR to the dre^ngcE-containing probe was inhibited by GlcNAc-6P and GlcN-6P”.

Work on `CC(=O)N[C@H]1C(O)O[C@H](CO)[C@@H](O)[C@@H]1O` (stereo partly shown) [GlcNAc] yielded a Kd (NgcE^Sco (SCO6005) [1]) of 1150 nM and a Kd [3] of 85 nM.

`CC(=O)N[C@H]1C(O)O[C@H](CO)[C@@H](O)[C@@H]1O[C@H](C)C(=O)O` (stereo partly shown) [MurNAc] gave a Kd (NgcE^Sco (SCO6005) [2]) of 25000 nM.

B1: drengcE (dsDNA)
DNA 1: CCGCCAAGCGAAAGTGGACTATACCTGTCGGCACTCCGGG
DNA 2: CCCGGAGTGCCGACAGGTATAGTCCACTTTCGCTTGGCGG
B1: binds (DasR-6His).

B2: dredasA (dsDNA)
DNA 1: CAAGCTCCCCGTACTGGTCTACACCATTGGTCCAGGTCCC
DNA 2: GGGACCTGGACCAATGGTGTAGACCAGTACGGGGAGCTTG
B2: binds (DasR-6His).

B3: drenagKA (dsDNA)
DNA 1: CGTACACCCGGGAGAGGTCTAGTCCACTGCGGTGGTGTAG
DNA 2: CTACACCACCGCAGTGGACTAGACCTCTCCCGGGTGTACG
B3: binds (DasR-6His).
